Experimental data taken from patent US12338296B2, “Peptides and compounds that bind to elongation initiation factor 4E” (AGENCY FOR SCIENCE, TECHNOLOGY AND RESEARCH, priority 2019, dated 2025).
Peptide text beside a SMILES is read from it.

biological target: T1, eIF4E (Homo sapiens, UniProt P06730); experiment: Tryptophan quenching experiments; type: binding; conditions: 1 μM eIF4E, 0.01-20 μM titrant, excitation 290 nm, emission 355 nm; FIG. 2
T1 construct: made in house; Plasmid and cells were provided by Cyclacel Ltd., Dundee
T1 sequence (P06730 whole entry): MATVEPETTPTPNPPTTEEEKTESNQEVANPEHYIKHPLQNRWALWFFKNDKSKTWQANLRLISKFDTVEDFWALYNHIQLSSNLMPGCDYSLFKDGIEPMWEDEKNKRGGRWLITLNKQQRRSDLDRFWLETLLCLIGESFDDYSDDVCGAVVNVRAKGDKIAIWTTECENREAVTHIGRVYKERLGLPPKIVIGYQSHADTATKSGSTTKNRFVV
Method: Tryptophan Quenching Experiments
Tryptophan quenching experiments were performed using an EnVision® multiplate reader with black matte 96-well plates. […] Concentrations tested ranged from 0.01-20 μM. Samples were excited with UV light at 290 nm to minimise contribution from tyrosine fluorescence. Tryptophan was measured at an emission wavelength of 355 nm.

Row | Molecule | tryptophan quenching of eIF4E
1 | KKRYSRDQLVAL (Synthetic peptide PHAGESOL) [reference compound] | significantly lower amounts of tryptophan quenching

biological target: T1, eIF4E; experiment: Surface plasmon resonance Kd determination on immobilized eIF4E (Biacore T100, CM5 chip); type: binding; conditions: KD relative to EE-2 (SPR)
Method: Surface Plasmon Resonance (for Structural Activity Relationship (SAR) Tables)
For stock peptide solutions, the compounds were dissolved in 100% DMSO to a concentration of 10 mM; further dilutions of the peptide stock solutions into DMSO and/or running buffer were performed immediately prior to analysis. Running buffer consisted of 10 mM Hepes pH 7.6, 0.15 M NaCl, and 0.1% Tween20. Stock/DMSO diluted peptide solutions were diluted into 1.03× running buffer to make a peptide solution with 3% DMSO final concentration. […] Surface Plasmon resonance experiments were performed on a Biacore T100 machine.
Pure eIF4E was immnobilized on a CM5 sensor chip. The CM5 chip was conditioned with a 6 s injection of 100 mM HCL, followed by a 6 s injection of 0.1% SDS and completed with a 6 s injection of 50 mM NaOH at a flow rate of 100 μl/min. Activation of the sensor chip surface was performed with a mixture of NHS (115 mg ml^−1) and EDC (750 mg ml^−1) for 7 min at 10 μl min^−1. […] The amount of eIF4E immobilized on the activated surface was controlled by altering the contact time of the protein solution and was approximately 1000 RU. After the immobilization of the protein, a 7-min injection (at 10 μl min^−1) of 1 M ethanolamine (pH 8.5) was used to quench excess active succinimide ester groups.
Six buffer blanks were first injected to equilibrate the instrument fully and then a solvent correction curve was performed followed by a further two blank injections. The solvent correction curve was setup by adding varying amount of 100% DMSO to 1.03× running buffer to generate a range of DMSO solutions (3.8%, 3.6%, 3.4%, 3.2%, 3%, 2.85%, 2.7% and 2.5% respectively). Using a flow rate of 50 μl/min, compounds were injected for 60 s and dissociation was monitored for 180 s. The data collection rate was 10 Hz. Kds were determined using the BiaEvaluation software (Biacore) and calculated from both the response of the eIF4E coated CM5 chips at equilibrium and also kinetically from the dissociation and association phase data for each of the peptides. Both the equilibrium and kinetic data were fitted to 1:1 binding models. Each individual peptide Kd was determined from three separate titrations. Within each titration at least two concentration points were duplicated to ensure stability and robustness of the chip surface.
Kd were determined using surface plasmon resonance (SPR) as described in Methods.

Row | Molecule | Fold change
2 | CSCC[C@@H]1NC(=O)[C@H](CCC(=O)O)NC(=O)[C@@H](NC(=O)[C@H](C)N)CSSC[C@@H](C(=O)NCC(N)=O)NC(=O)[C@H](CC(=O)O)NC(=O)[C@H](CCCCN)NC(=O)[C@H](Cc2ccccc2)NC(=O)[C@H](Cc2ccccc2)NC(=O)CNC1=O [EE-39] (HELM PEPTIDE1{A.C.E.M.G.F.F.K.D.C.G.[am]}$PEPTIDE1,PEPTIDE1,2:R3-10:R3$$$V2.0) | 0.5
3 | CSCC[C@@H]1NC(=O)[C@H](CCC(=O)O)NC(=O)[C@@H](N)CSSC[C@@H](C(N)=O)NC(=O)[C@H](CC(=O)O)NC(=O)[C@H](C)NC(=O)[C@H](Cc2ccccc2)NC(=O)[C@H](Cc2ccccc2)NC(=O)CNC1=O [EE-44] (HELM PEPTIDE1{C.E.M.G.F.F.A.D.C.[am]}$PEPTIDE1,PEPTIDE1,1:R3-9:R3$$$V2.0) | 0.4
4 | CSCC[C@@H]1NC(=O)[C@H](CCC(=O)O)NC(=O)[C@@H](NC(=O)[C@H](C)NC(C)=O)CSSC[C@@H](C(=O)NCC(N)=O)NC(=O)[C@H](CC(=O)O)NC(=O)[C@H](CCC(N)=O)NC(=O)[C@H](Cc2ccccc2)NC(=O)[C@H](Cc2ccccc2)NC(=O)CNC1=O [EE-11] | 4.9
5 | CSCC[C@@H]1NC(=O)[C@H](CCC(=O)O)NC(=O)[C@@H](NC(=O)[C@H](C)N)CSSC[C@@H](C(=O)NCC(N)=O)NC(=O)[C@H](CC(=O)O)NC(=O)[C@H](CC(C)C)NC(=O)[C@H](Cc2ccccc2)NC(=O)[C@H](Cc2ccccc2)NC(=O)CNC1=O [EE-41] (HELM PEPTIDE1{A.C.E.M.G.F.F.L.D.C.G.[am]}$PEPTIDE1,PEPTIDE1,2:R3-10:R3$$$V2.0) | 0.9
6 | CSCC[C@@H]1NC(=O)[C@H](CCC(=O)O)NC(=O)[C@@H](NC(=O)[C@H](C)N)CSSC[C@@H](C(=O)NCC(N)=O)NC(=O)[C@H](CC(=O)O)NC(=O)CNC(=O)[C@H](Cc2ccccc2)NC(=O)[C@H](Cc2ccccc2)NC(=O)CNC1=O [EE-40] (HELM PEPTIDE1{A.C.E.M.G.F.F.G.D.C.G.[am]}$PEPTIDE1,PEPTIDE1,2:R3-10:R3$$$V2.0) | 1.9

same assay, conditions: SPR, eIF4E immobilized on CM5 chip, 1:1 binding model, three separate titrations

Row | Molecule | Kd [µM]
7 | CSCC[C@@H]1NC(=O)[C@H](C)NC(=O)[C@@H](NC(=O)[C@H](C)N)CSSC[C@@H](C(=O)NCC(N)=O)NC(=O)[C@H](CC(=O)O)NC(=O)[C@H](CCC(N)=O)NC(=O)[C@H](Cc2ccccc2)NC(=O)[C@H](Cc2ccccc2)NC(=O)CNC1=O [EE-2A] (HELM PEPTIDE1{A.C.A.M.G.F.F.Q.D.C.G.[am]}$PEPTIDE1,PEPTIDE1,2:R3-10:R3$$$V2.0; bridges inferred) | 11
8 | CSCC[C@@H]1NC(=O)[C@H](CCC(=O)O)NC(=O)[C@@H](NC(=O)[C@H](C)N)CSSC[C@@H](C(=O)NCC(N)=O)NC(=O)[C@H](CC(=O)O)NC(=O)[C@H](CCC(N)=O)NC(=O)[C@H](Cc2ccccc2)NC(=O)[C@H](Cc2ccccc2)NC(=O)CCNC1=O [EE-27] (HELM PEPTIDE1{A.C.E.M.[bAla].F.F.Q.D.C.G.[am]}$PEPTIDE1,PEPTIDE1,2:R3-10:R3$$$V2.0) | > 50
9 | CSCC[C@@H]1NC(=O)[C@H](CCC(=O)O)NC(=O)[C@@H](NC(=O)[C@H](C)N)CSSC[C@@H](C(=O)NCC(N)=O)NC(=O)[C@H](CC(=O)O)NC(=O)[C@H](CCC(N)=O)NC(=O)[C@H](CC(C)C)NC(=O)[C@H](Cc2ccccc2)NC(=O)CNC1=O [EE-34] (HELM PEPTIDE1{A.C.E.M.G.F.L.Q.D.C.G.[am]}$PEPTIDE1,PEPTIDE1,2:R3-10:R3$$$V2.0) | > 50
10 | C[C@H](N)C(=O)N[C@H]1CSSC[C@@H](C(=O)NCC(N)=O)NC(=O)[C@H](CC(=O)O)NC(=O)[C@H](CCC(N)=O)NC(=O)[C@H](Cc2ccccc2)NC(=O)[C@H](Cc2ccccc2)NC(=O)CNC(=O)[C@H](C)NC(=O)[C@H](CCC(=O)O)NC1=O [EE-2B] (HELM PEPTIDE1{A.C.E.A.G.F.F.Q.D.C.G.[am]}$PEPTIDE1,PEPTIDE1,2:R3-10:R3$$$V2.0) | > 50
11 | CSCC[C@@H]1NC(=O)[C@H](CCC(=O)O)NC(=O)[C@@H](NC(=O)[C@H](C)N)CSSC[C@@H](C(=O)NCC(N)=O)NC(=O)[C@H](CC(=O)O)NC(=O)[C@H](CCC(N)=O)NC(=O)[C@H](Cc2ccccc2)NC(=O)[C@H](Cc2ccccc2)NC(=O)[C@H](C)NC1=O [EE-2C] (HELM PEPTIDE1{A.C.E.M.A.F.F.Q.D.C.G.[am]}$PEPTIDE1,PEPTIDE1,2:R3-10:R3$$$V2.0; bridges inferred) | 32
12 | CSCC[C@@H]1NC(=O)[C@H](CCC(=O)O)NC(=O)[C@@H](NC(=O)[C@H](C)N)CSSC[C@@H](C(=O)NCC(N)=O)NC(=O)[C@H](CC(=O)O)NC(=O)[C@H](CCC(N)=O)NC(=O)[C@H](C)NC(=O)[C@H](Cc2ccccc2)NC(=O)CNC1=O [EE-2E] (HELM PEPTIDE1{A.C.E.M.G.F.A.Q.D.C.G.[am]}$PEPTIDE1,PEPTIDE1,2:R3-10:R3$$$V2.0) | > 50
13 | CSCC[C@@H]1NC(=O)[C@H](CCC(=O)O)NC(=O)[C@@H](NC(=O)[C@H](C)N)CSSC[C@@H](C(=O)NCC(N)=O)NC(=O)[C@H](CC(=O)O)NC(=O)[C@H](CCC(N)=O)NC(=O)[C@H](Cc2ccccc2)NC(=O)[C@H](CC(C)C)NC(=O)CNC1=O [EE-33] (HELM PEPTIDE1{A.C.E.M.G.L.F.Q.D.C.G.[am]}$PEPTIDE1,PEPTIDE1,2:R3-10:R3$$$V2.0) | > 50
14 | CSCC[C@@H]1NC(=O)[C@H](CCC(=O)O)NC(=O)[C@@H](NC(=O)[C@H](C)NC(C)=O)CSSC[C@@H](C(=O)NCC(N)=O)NC(=O)[C@H](CC(=O)O)NC(=O)[C@H](CCC(N)=O)NC(=O)[C@H](Cc2ccccc2)NC(=O)[C@H](Cc2ccccc2)NC(=O)CNC1=O [EE-11] | 1
15 | CSCC[C@@H]1NC(=O)[C@H](CCC(=O)O)NC(=O)[C@@H](NC(=O)[C@H](C)N)CSSC[C@@H](C(=O)NCC(N)=O)NC(=O)[C@H](CC(=O)O)NC(=O)[C@H](CCC(N)=O)NC(=O)[C@H](CC(C)C)NC(=O)[C@H](CC(C)C)NC(=O)CNC1=O [EE-38] (HELM PEPTIDE1{A.C.E.M.G.L.L.Q.D.C.G.[am]}$PEPTIDE1,PEPTIDE1,2:R3-10:R3$$$V2.0) | > 50
16 | CSCC[C@@H]1NC(=O)[C@H](CCC(=O)O)NC(=O)[C@@H](NC(=O)[C@H](C)N)CSSC[C@@H](C(=O)NCC(N)=O)NC(=O)[C@H](CC(=O)O)NC(=O)CNC(=O)[C@H](Cc2ccccc2)NC(=O)[C@H](Cc2ccccc2)NC(=O)CNC1=O [EE-40] (HELM PEPTIDE1{A.C.E.M.G.F.F.G.D.C.G.[am]}$PEPTIDE1,PEPTIDE1,2:R3-10:R3$$$V2.0) | 0.4
17 | CSCC[C@@H]1NC(=O)[C@H](CCC(=O)O)NC(=O)[C@@H](NC(=O)[C@H](C)N)CSSC[C@@H](C(=O)NCC(N)=O)NC(=O)[C@H](CC(=O)O)NC(=O)[C@H](CCC(N)=O)NC(=O)[C@H](Cc2ccccc2)NC(=O)[C@H](Cc2ccccc2)NC(=O)[C@@H]2CCCN2C1=O [EE-29] (HELM PEPTIDE1{A.C.E.M.P.F.F.Q.D.C.G.[am]}$PEPTIDE1,PEPTIDE1,2:R3-10:R3$$$V2.0) | > 50

same assay, conditions: SPR, in words

Row | Molecule | binding to eIF4E compared with EE-02
18 | CSCC[C@@H]1NC(=O)[C@H](CCC(=O)O)NC(=O)[C@@H](NC(=O)[C@H](C)N)CSSC[C@@H](C(=O)NCC(N)=O)NC(=O)[C@H](CC(=O)O)NC(=O)[C@H](CCC(N)=O)NC(=O)[C@H](Cc2ccc(O)cc2)NC(=O)[C@H](Cc2ccccc2)NC(=O)CNC1=O [EE-35] (HELM PEPTIDE1{A.C.E.M.G.F.Y.Q.D.C.G.[am]}$PEPTIDE1,PEPTIDE1,2:R3-10:R3$$$V2.0) | bound more tightly than EE-02
19 | CSCC[C@@H]1NC(=O)[C@H](CCC(=O)O)NC(=O)[C@@H](NC(=O)[C@H](C)N)CSSC[C@@H](C(=O)NCC(N)=O)NC(=O)[C@H](CC(=O)O)NC(=O)[C@H](CCC(N)=O)NC(=O)[C@H](Cc2ccccc2)NC(=O)[C@H](Cc2ccc(O)cc2)NC(=O)CNC1=O [EE-30] (HELM PEPTIDE1{A.C.E.M.G.Y.F.Q.D.C.G.[am]}$PEPTIDE1,PEPTIDE1,2:R3-10:R3$$$V2.0) | bound more tightly than EE-02
